Reference: patent US11407783B2, “Triptolide derivative and preparation method therefor and use thereof” (priority 2018, dated 2022)
Like-named read-outs stand apart in the source and are kept apart here.

How the values were obtained:
[1] = system: mouse B lymphocytes induced by LPS; experiment: In vitro immunosuppressive activity, spleen lymphocyte proliferation (3H-thymidine), LPS-induced; type: cell-based, BALB/c mice; conditions: read-out: IC50 (μM) mouse B lymphocytes induced by LPS
Method: (§1) Preparation of Mouse Spleen Lymphocyte
(§2) BALB/c mice were sacrificed by spinal dislocation, and their spleen was aseptically taken out. A single cell suspension was prepared and adjusted to the required concentration.
(§3) A suspension of 4×10^6 cells/ml spleen lymphocytes was routinely prepared and 100 μL of cells was added into each well of a 96-well plate. 50 μL test sample in different concentrations was added and ConA (final concentration 5 μg/mL) was added to induce T lymphocyte activation and proliferation, or LPS (final concentration 10 μg/mL) (50 μL) was added to induce B lymphocyte activation and proliferation. The corresponding positive control and non-stimulating background control were set. The cells were cultured in 37° C., 5% CO2 incubator for 48 h. 0.25 μCi ^3H-thymidine was introduced and the cultivation was completed after 8 h. At the end of the cultivation, the culture plate was frozen at −20° C. in a freezer until measurement. The cells were collected on a glass fiber membrane with a cell harvester and then scintillation solution was added. The amount of ^3H-thymine nucleotides incorporated into the cells' DNA was read on a Beta counter. The cell proliferation was represented by the cpm value.

[2] = system: mouse T lymphocytes induced by ConA; experiment: In vitro immunosuppressive activity, spleen lymphocyte proliferation (3H-thymidine), ConA-induced; type: cell-based, BALB/c mice; conditions: read-out: IC50 (μM) mouse T lymphocytes induced by ConA
Method: as §1, §2, §3

[3] = system: PC-3 (human prostate cancer cell); experiment: In vitro antitumor activity, CellTiter-Glo cell viability, 48 h; type: cell-based; conditions: read-out: Relative IC50 (μM) PC-3
Method: (§4) Tumor cells included AsPC-1 (human pancreatic cancer cell), PC-3 (human prostate cancer cell), and SK-OV-3 (human ovarian cancer cell).
(§5) Triptolide was used as a positive control; the working concentrations of the test drug were 1 μM, 0.33 μM, 0.11 μM, […], 0.012 μM, 0.004 μM, 1.4 nM, and 0.46 nM. After the tumor cells were revived, they were resuspended in the corresponding complete medium, placed in 5% CO2, and cultured at 37° C. The tumor cells at the logarithmic growth stage were suspended in the corresponding complete medium to adjust the cell concentration. 90 μL of cell suspension was added into each well. The cells were incubated at 37° C. in 5% CO2 overnight. Each concentration of the test drug was added and the cells were further cultured for 48 hours. Finally. Promega CellTiter-Glo Luminescent Cell Viability Assay Kit was used for detection.

[4] = system: SK-OV-3 (human ovarian cancer cell); experiment: as above; type: cell-based; conditions: read-out: Relative IC50 (μM) SK-OV-3
Method: as §4, §5

[5] = system: AsPC-1 (human pancreatic cancer cell); experiment: as above; type: cell-based; conditions: read-out: Relative IC50 (μM) AsPC-1
Method: as §4, §5

[6] = Body weight, mortality and toxicity in AsPC-1 tumor-bearing nude mice; type: in vivo, male nude mice; conditions: emulsions
Method: Human pancreatic cancer cell AsPC-1 was subcutaneously inoculated on the right abdominal side of male nude mice. Tumor-bearing mice were randomly divided into 5 groups: negative control group (Control, n=8, blank emulsion, i.p./i.v., qd); Triptolide group (Triptolide, n=8, 0.25 mg/kg, i.v., qd); positive control group (Gemcitabine, n=8, 50 mg/kg, i.p., tiw); CK21S-005 emulsion group (CK21S-005 emulsion, n=8, 5 mg/kg, i.p./i.v., qd); and CK21S-005 emulsion group (CK21S-005 emulsion, n=8, 2.5 mg/kg, i.p./i.v., qd). Mice were administered in groups until the end of the experiment. The changes in tumor size and tumor-bearing mouse weight over time were monitored during the 2-week administration period, and tumors were weighed at the end of the experiment to comprehensively evaluate the inhibitory effect of the drug CK21S-005 on tumor growth.
The preparation method of the emulsion was as follows. A prescribed amount of injection oil was weighed and heated to 70-90° C. A prescribed amount of raw material was weighed, dispersed in the oil phase and completely dissolved under shear-stirring to form an oil phase. A prescribed amount of injection water was weighed and heated to 70° C. A prescribed amount of phospholipid, co-emulsifier, glycerin, etc. were added and dispersed under shear to form an aqueous phase. […]

[7] = LPS 10 μg/mL, 48 h, 3H-thymidine
[8] = ConA 5 μg/mL, 48 h, 3H-thymidine
[9] = SK-OV-3, 48 hours, CellTiter-Glo
[10] = ASPC1, AsPC-1, 48 hours, CellTiter-Glo

| SMILES | IC50 [1, 7] [µM] | IC50 [2, 8] [µM] | IC50 ([3]; PC-3, 48 hours, CellTiter-Glo) [µM] | IC50 [4, 9] [µM] | IC50 [5, 10] [µM] | IC50 [1] [µM] | IC50 [2] [µM] | IC50 ([3]; 48 h) [µM] | IC50 ([4]; SK-OV-3, 48 h) [µM] | IC50 ([5]; ASPC1, 48 h) [µM] | Safety compared with triptolide [6] |
| --- | --- | --- | --- | --- | --- | --- | --- | --- | --- | --- | --- |
| CC(C)[C@]12O[C@H]1[C@@H]1O[C@@]13[C@@]1(C)CCC4=C(/C(=C(\OC(=O)c5ccccc5)c5ccccc5)OC4=O)[C@@H]1C[C@@H]1O[C@@]13C2F (stereo partly drawn) [CK21S-008] | 0.009 | 0.01 | 0.03 | 0.038 | 0.035 | – | – | – | – | – | – |
| COc1ccc(C(=O)O/C(=C2/OC(=O)C3=C2[C@@H]2C[C@@H]4O[C@@]45[C@H](O)[C@@]4(C(C)C)O[C@H]4[C@@H]4O[C@@]45[C@@]2(C)CC3)c2ccc(OC)cc2)cc1 [CK21S-002] | 0.02 | 0.021 | 0.056 | 0.07 | 0.071 | – | – | – | – | – | – |
| CC(C)[C@]12O[C@H]1[C@@H]1O[C@]13[C@]1(O[C@H]1C[C@H]1C4=C(CC[C@@]13C)C(=O)O/C4=C(/OC(=O)C1CCCCC1)c1ccccc1)[C@@H]2OC(=O)OC(C)(C)C [CK21S-006-b] | – | – | – | – | – | 0.015 | 0.016 | 0.034 | 0.045 | 0.036 | – |
| CC(C)[C@]12O[C@H]1[C@@H]1O[C@]13[C@]1(O[C@H]1C[C@H]1C4=C(CC[C@@]13C)C(=O)O/C4=C(/OC(=O)c1ccco1)c1ccccc1)[C@@H]2O [CK21S-001] | 0.006 | 0.008 | 0.022 | 0.042 | 0.028 | – | – | – | – | – | – |
| CC(C)[C@]12O[C@H]1[C@@H]1O[C@@]13[C@@]1(C)CCC4=C(/C(=C(\OC(=O)c5ccccc5)c5ccccc5)OC4=O)[C@@H]1C[C@@H]1O[C@@]13C2=O [CK21S-007] | 0.017 | 0.015 | 0.043 | 0.05 | 0.049 | – | – | – | – | – | – |
| CC(C)[C@]12O[C@H]1[C@@H]1O[C@]13[C@]1(O[C@H]1C[C@H]1C4=C(CC[C@@]13C)C(=O)O/C4=C(/OC(=O)c1ccc(C(F)(F)F)cc1)c1ccc(C(F)(F)F)cc1)[C@@H]2O [CK21S-003] | 0.004 | 0.006 | 0.018 | 0.028 | 0.014 | – | – | – | – | – | – |
| CC(C)[C@]12O[C@H]1[C@@H]1O[C@]13[C@]1(O[C@H]1C[C@H]1C4=C(CC[C@@]13C)C(=O)O/C4=C(/OC(=O)c1ccccc1)c1ccccc1)[C@@H]2O [CK21S-005] | – | – | – | – | – | 0.01 | 0.012 | 0.03 | 0.041 | 0.04 | better than that of triptolide |
| CC(C)[C@]12O[C@H]1[C@@H]1O[C@]13[C@]1(O[C@H]1C[C@H]1C4=C(CC[C@@]13C)C(=O)O/C4=C(/OC(=O)C1CCCCC1)c1ccccc1)[C@@H]2O [CK21S-006] | 0.008 | 0.01 | 0.031 | 0.041 | 0.035 | – | – | – | – | – | – |
| CC(C)[C@]12O[C@H]1[C@@H]1O[C@]13[C@]1(O[C@H]1C[C@H]1C4=C(CC[C@@]13C)C(=O)OC4)[C@@H]2O [Triptolide, triptolide] | 0.004 | 0.005 | 0.014 | 0.016 | 0.014 | – | – | – | – | – | – |
| CC(C)[C@]12O[C@H]1[C@@H]1O[C@]13[C@]1(O[C@H]1C[C@H]1C4=C(CC[C@@]13C)C(=O)O/C4=C(/OC(=O)c1ccccc1)c1ccccc1)[C@@H]2OC(=O)OC(C)(C)C [CK21S-005-b] | 0.009 | 0.011 | 0.035 | 0.04 | 0.042 | – | – | – | – | – | – |
| CC(C)[C@]12O[C@H]1[C@@H]1O[C@]13[C@]1(O[C@H]1C[C@H]1C4=C(CC[C@@]13C)C(=O)O/C4=C(/OC(=O)c1ccc(C(F)(F)F)cc1)c1ccc(C(F)(F)F)cc1)[C@@H]2OC(=O)OC(C)(C)C [CK21S-003-b] | – | – | – | – | – | 0.005 | 0.006 | 0.021 | 0.029 | 0.02 | – |
| CC(C)[C@]12O[C@H]1[C@@H]1O[C@]13[C@]1(O[C@H]1C[C@H]1C4=C(CC[C@@]13C)C(=O)O/C4=C(/OC(=O)c1ccco1)c1ccccc1)[C@@H]2OC(=O)OC(C)(C)C [CK21S-001-b] | – | – | – | – | – | 0.01 | 0.011 | 0.029 | 0.048 | 0.03 | – |
| COc1ccc(C(=O)O/C(=C2/OC(=O)C3=C2[C@@H]2C[C@@H]4O[C@@]45[C@H](OC(=O)OC(C)(C)C)[C@@]4(C(C)C)O[C@H]4[C@@H]4O[C@@]45[C@@]2(C)CC3)c2ccc(OC)cc2)cc1 [CK21S-002-b] | – | – | – | – | – | 0.01 | 0.012 | 0.042 | 0.057 | 0.042 | – |
| CC(C)[C@]12O[C@H]1[C@@H]1O[C@]13[C@]1(O[C@H]1C[C@H]1C4=C(CC[C@@]13C)C(=O)O/C4=C(/OC(=O)c1ccco1)c1ccco1)[C@@H]2OC(=O)OC(C)(C)C [CK21S-004-b] | – | – | – | – | – | 0.025 | 0.03 | 0.045 | 0.129 | 0.096 | – |
| CC(C)[C@]12O[C@H]1[C@@H]1O[C@]13[C@]1(O[C@H]1C[C@H]1C4=C(CC[C@@]13C)C(=O)O/C4=C(/OC(=O)c1ccco1)c1ccco1)[C@@H]2O [CK21S-004] | 0.009 | 0.012 | 0.023 | 0.118 | 0.038 | – | – | – | – | – | – |
| CC(C)[C@]12O[C@H]1[C@@H]1O[C@]13[C@]1(O[C@H]1C[C@H]1C4=C(CC[C@@]13C)C(=O)O/C4=C(/OC(=O)c1ccccc1)c1ccccc1)[C@@H]2OCOP(=O)(O)O [CK21S-009] | 0.008 | 0.008 | 0.027 | 0.032 | 0.03 | – | – | – | – | – | – |
